The test system of this experiment is HepG2 cells. The experiment in a line: Detection of reactive oxygen generation in cells treated with menadione or 4-aminobiphenyl, HepG2. Type of experiment: cell-based. The following applies: for response of signal to menadione or 4-aminobiphenyl (in words): HepG2; for averaged bioluminescence: 60 minutes 37° C. As to the method: In this example, various compounds shown to react with hydrogen peroxide were incubated with cells treated with menadione and 4-aminobiphenyl, two compounds that can generate reactive oxygen species (ROS). Menadione causes the direct production of reactive oxygen within the cell and is a very strong inducer of a ROS effect (Sun, J S et. al. Cell Mol Life Sci (1997) vol 53 pp 967-76). 4-aminobiphenyl is believed to require metabolic conversion to a quinine-like structure before being able to induce the formation of a ROS (Makena, P and Chung, K T. Environ. Mol. Mutagen. (2007), vol 48, pp 404-413).
A 40 mM solution of 4-aminobiphenyl (Sigma A2898-1g) was made by dissolving 2.5 mg in 375 μl of DMSO (Fluka) to create a 40 mM solution. 50 μl of 4 mg/ml PBI 4458 in DMSO was diluted to 1 ml with HBSS buffer (Invitrogen), and 100 μl added to wells A1 and A2 of a microtiter plate. A 10 μl sample of 40 mM 4-aminobiphenyl was mixed with 190 μl of the remaining PBI 4458 in HBSS, and 60 μl added to wells B1 and B2 and 30 μl to wells C1 and C2. A 10 μl sample of 40 mM menadione in DMSO was mixed with 190 μl of the remaining PBI 4458 in HBSS, and 60 μl added to wells D1 and D2 and 30 μl to E1 and E2. The volume in wells B1 to E2 was then adjusted to 100 μl by addition of remaining PBI 4458 in HBSS.
50 μl of 4 mg/ml PBI 4480 in DMSO was diluted to 1 ml with HBSS buffer, and 100 μl placed in wells A3 and A4 of the microtiter plate. A 10 μl sample of 40 mM 4 aminobiphenyl was mixed with 190 μl of the remaining PBI 4480 in HBSS, and 60 μl added to wells B3 and B4 and 30 μl to wells C3 and C4. A 10 μl sample of 40 mM menadione in DMSO was mixed with 190 μl of the remaining PBI 4480 in HBSS, and 60 μl added to wells D3 and D4 and 30 μl added to wells E3 and E4. The volume in wells B3 to E4 was then adjusted to 100 μl by addition of left over PBI 4480 in HBSS.
50 μl of 4 mg/ml PBI 3048 in DMSO was diluted to 1 ml with HBSS, and 100 μl added to wells A5 and A6 of the microtiter plate. A 10 μl sample of 40 mM 4 aminobiphenyl was mixed with 190 μl of the remaining PBI 3048 in HBSS, and 60 μl added to wells B5 and B6 and 30 μl added to wells C5 and C6. A 10 μl sample of 40 mM menadione in DMSO was mixed with 190 μl of the remaining PBI 3048 in HBSS, and 60 μl added to wells D5 and D6 and 30 μl added to wells E5 and E6. The volume in wells B5 to E6 was then adjusted to 100 μl by addition of the remaining PBI 3048 in HBSS.
Two cell culture plates were seeded with cells resuspended in HBSS. One plate contained 20,000 Jurkat cells/well in wells A1-H6. The other plate contained 20,000 HepG2 cells/well in wells A1-H6. Both plates were incubated overnight in DMEM with 10% fetal bovine serum (FBS). The media from the HepG2 cells was removed, discarded, and replaced with 50 μl of HBSS. A 50 μl sample of wells A1-H6 from the plate with the various PBI compounds was transferred to the corresponding wells in the two cell culture plates, and incubated for 60 minutes in a 37° C., 5% CO2 incubator.
50 μl of LDR (Example 23) and 25 μl of 1 mM D-cysteine in 100 mM HEPES buffer, pH 7.5 was added to all wells of a new luminometer plate. After incubation, a 25 μl sample of wells A1-H6 containing Jurkat cells was added to wells A1-H6 of the new luminometer plate, and a 25 μl sample of wells A1-H6 containing HepG2 cells was added to wells A7-H12 of the new luminometer plate. The plate was incubated at room temperature for 15 minutes, and bioluminescence detected on a GloMax® luminometer.
The bioluminescence from the duplicate samples was averaged and compared to the values of the cells in A row (Table 4).

In the case of `O=C(O)C1CSC(c2nc3ccc(OCc4ccc(B(O)O)cc4)cc3s2)=N1` (stereo not drawn) [PBI 3048], the “response of signal to menadione or 4-aminobiphenyl (in words)” value (shortened to “response of signal”) is reported as “do not show as clear of a response”. Also, the averaged bioluminescence (HepG2, 300 μM 4ABP) is 364,353. Besides, the averaged bioluminescence (HepG2, 300 μM Menadione) is recorded as 426,802. Also, the averaged bioluminescence (HepG2, 600 μM 4ABP) was 383,471. For the same molecule, for the setting “HepG2, 600 μM Menadione”, the averaged bioluminescence was 408,177. The averaged bioluminescence (HepG2, No Effector) is 407,917.
On to `CC1(C)OB(/C=C/COc2ccc3nc(C#N)sc3c2)OC1(C)C` [PBI 4458, (E)-6-((3-(4,4,5,5-tetramethyl-1,3,2-dioxaborolan-2-yl)allyl)oxy)-benzo[d]thiazole-2-carbonitrile], for which the “response of signal” value was “above those for the cells that were not given any effector”. Besides, the averaged bioluminescence (HepG2, 300 μM 4ABP) is recorded as 163,031. Also, the averaged bioluminescence (HepG2, 300 μM Menadione) is recorded as 622,230. For the same molecule, where the note is “HepG2, 600 μM 4ABP”, the averaged bioluminescence was 169,952. In addition, the averaged bioluminescence (HepG2, 600 μM Menadione) is recorded as 728,404. Also, the averaged bioluminescence (HepG2, No Effector) is reported as 117,111.
For `CC1(C)OB(c2ccc(COc3ccc4nc(C#N)sc4c3)c3ccccc23)OC1(C)C` [PBI 4480, 6-((4-(4,4,5,5-tetramethyl-1,3,2-dioxaborolan-2-yl)naphthalen-1-yl)methoxy)benzo[d]thiazole-2-carbonitrile], the “response of signal” value was “do not show as clear of a response”. Also, the averaged bioluminescence (HepG2, 300 μM 4ABP) is reported as 20,574. The averaged bioluminescence (HepG2, 300 μM Menadione) is given as 20,788. Moreover, the averaged bioluminescence (HepG2, 600 μM 4ABP) was 21,023. The averaged bioluminescence (HepG2, 600 μM Menadione) is listed as 20,509. The averaged bioluminescence (HepG2, No Effector) is recorded as 19,627.

(Values after US8937183B2, “Detection of hydrogen peroxide” (Promega Corporation, priority 2011, dated 2015).)
